The source of these data is paper PMC7324608 (Scientific Reports, 2020).

The target of experiment [1] is T1, HpHtrA S164A (Helicobacter pylori, UniProt G2J5T2, S164A).
T1 sequence (G2J5T2 18-475 S164A): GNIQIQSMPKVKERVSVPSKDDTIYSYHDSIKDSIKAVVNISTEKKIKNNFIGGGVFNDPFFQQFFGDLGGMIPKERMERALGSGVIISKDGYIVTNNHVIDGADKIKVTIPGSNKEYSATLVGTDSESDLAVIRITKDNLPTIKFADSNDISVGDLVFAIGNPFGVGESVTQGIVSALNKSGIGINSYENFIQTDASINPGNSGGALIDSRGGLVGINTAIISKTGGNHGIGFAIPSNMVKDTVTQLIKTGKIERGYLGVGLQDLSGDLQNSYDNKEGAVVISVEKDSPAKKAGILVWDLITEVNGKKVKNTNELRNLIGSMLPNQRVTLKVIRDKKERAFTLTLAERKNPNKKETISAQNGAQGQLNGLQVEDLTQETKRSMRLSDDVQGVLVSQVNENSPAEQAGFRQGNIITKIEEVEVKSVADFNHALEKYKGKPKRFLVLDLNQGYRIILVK
As to the kind of experiment: thermal shift assay. The format is binding. Further details: (HpHtrA, G18-K475, UniProt G2J5T2); GST (N, cleaved yes); made in house; host or cells: E. coli BL21. The method, then: Recombinant HpHtrA proteins (wt, S164A, D165A, S166A, D168A) in 50 mM HEPES buffer (pH 7.4) were mixed with SYPRO Orange (Sigma-Aldrich, Vienna, Austria) to final concentrations of 4 µM HpHtrA and 7 × SYPRO Orange in a 96-well PCR plate. […] Fluorescence data was collected using an Applied Bioscience StepOne Plus PCR cycler (Thermo Fisher Scientific, Schwerte, Germany) during a temperature ramp from 25–95 °C (0.5 °C per min) with a 4 min hold at 25 °C and 95 °C. SYPRO Orange binds to exposed hydrophobic regions within the denatured HpHtrA proteins, which increases the fluorescence of the dye[57],[58]. The fluorescence emission signal can then be used to determine the melting temperature of the protein, which is located at the infliction point of the fluorescence signal curve. The experiment was performed in triplicates.

In experiment [2] the target is T1, HpHtrA S164A. The experiment can be described thus: biochemical. The method, then: (§1) Synthesis of 2-Abz-AQRVAFY(3-NO2)-NH2. The peptide was assembled manually on a 20 µmol scale.
(§2) The side-chain protecting groups were Pbf for Arg, and Trt for Gln. Fmoc deprotection was carried out with 25% piperidine in DMF/NMP (80:20, v/v) for 3 min, and 12.5% piperidine in DMF/NMP (80:20, v/v) for 12 min. The double couplings (2x45 min) were accomplished with the mixture Fmoc-AA-OH/HOBt/HBTU/DIPEA (5:5:4.8:10 equiv.). 2 -Boc-Abz-OH was coupled with the same protocol.
(§3) Afterwards, the peptidyl-resin was treated with 25% piperidine in DMF/NMP (80:20, v/v) (2x12 min) to deacylate the 3-nitro-tyrosine side chain. The peptide was simultaneously cleaved from the resin and deprotected by using the mixture TFA/H2O/TIA/EDT/TIS (90:3:1:3:3; Vtot = 1 ml) for about 3 h, precipitated from ice-cold diethyl ether, recovered by centrifugation at 4 °C for 6 min, washed four times with ice-cold diethyl ether, and dried in vacuo. The solid was dissolved in water and lyophilized.
(§4) Microscale thermophoresis .
(§5) D168A, MicroScale Thermophoresis (MST) analysis was performed using the Monolith NT.115 (NanoTemper Technologies). HpHtrA proteases were labeled with red fluorescent dye NT -650-NHS (amine reactive) according to the manufacturer’s protocol. Remaining free dye was removed by buffer exchange column chromatography and proteins were eluted in 50 mM Tris pH 7.4, 150 mM NaCl, 0.04% Tween. 5 nM of labelled HpHtrA was incubated for 15 minutes at RT with decreasing […]
(§6) Measurement was performed with premium treated capillaries (NanoTemper Technologies) and the Monolith NT.115 Microscale Thermophoresis device. Data analysis was performed with MO.Affinity Analysis v2.3 (NanoTemper Technologies) and GraphPad Prism Software (Version 8.0.2). Three independent experiments were […]

For experiment [3], the target named is T2, HpHtrA wt (Helicobacter pylori, UniProt G2J5T2).
T2 sequence (G2J5T2 18-475): T1 sequence (G2J5T2 18-475 S164A) with A147S
As to the kind of experiment: biochemical. The method, then:
as §1, §2, §3, §4, §5, §6

The test system of experiment [4] is HtrA homolog A (HhoA). The note with it: cited from earlier work.

SMILES strings stand for the structures. Residue numbers refer to the chain shown, from its start.

For the compound `[Cu+2]` [Cu^++, CuCl2], the “thermal destabilization (ΔTm)” value in experiment [1] (higher concentrations of ion) is “destabilized”. Moreover, the “thermal stabilization (ΔTm)” value in experiment [1] (low/increasing concentrations of ion) is reported as “stabilized”.
For the compound `[Zn+2]` [Zn^++, ZnCl2], the values for the equilibrium dissociation constant (Kd) in experiment [2] and in experiment [3] were 55 ± 34 µM and 23 ± 12 µM, respectively. The Response amplitude in experiment [2] (MST, 5 nM labelled HpHtrA S164A) worked out at 3.6; in experiment [3] (MST, 5 nM labelled HpHtrA wt, ZnCl2 1 mM - 30.5 nM), 4.3. Also, the “S/N (signal to noise ratio)” value in experiment [2] (MST, HpHtrA S164A) is 6.0; in experiment [3] (MST, HpHtrA wt) it was 6.3. For the same compound, the “effect on HhoA in a casein cleavage assay” value in experiment [4] was “inactivates”.

For orientation: Kd means the concentration at which binding is half-saturated. Lower therefore signals a tighter complex.
